{"source": "patent US6447801B1", "about": "“Anti-parasitic action of N,N-diethyl-m-toluamide (deet) and formulations that prolong its activity in the skin” (priority 1997, dated 2002)", "key": {"[1]": {"test_system": "Dermacetor variabilis", "assay": "Tick attachment to rabbit ear, Dermacetor variabilis", "type": "in vivo", "procedure": "(§1) To determine the effect of DEET on tick attachment and feeding we used two species of ticks Amblyoma americanum and Dermacetor variabilis purchased from University of Oklahoma. Ticks were allowed to feed on the ears of male New Zealand white rabbits purchased from Charles River. For feeding, five ticks were introduced into a 60 μm sieve cell well (Fisher Scientific) which was attached to the ear of the rabbit with nail glue. Ticks were observed every 30 minutes for the first eight hours to assess skin attachment and feeding behavior. Tick attachment was defined as the minimum time required for 3 of the 5 ticks to attach to the ear. […] The observation was continued for 72 hours for both species of ticks. Separate rabbits were used for each species and for each treatment. […] All the ticks in this study were active until attachment.\n(§2) In this series of experiments, the protective effect(s) of different concentrations of DEET and Lipodeet on the attachment of nymphs and adults of two species of ticks, A. americanum and D. variabilis, to the rabbit ear was evaluated. Experiments were set up wherein different concentrations (20% or 40% of DEET or Lipodeet were applied (0.2 ml of the samples to 10 cm^2 surface area), onto the dorsal side of the ear lobes of a rabbit. After allowing the preparation to dry for 30 min., sieve cups (Fisher Scientific, 1″ inner diameter) were then attached to the ear lobes using nail glue. Ten nymphs or five adult ticks were then introduced into the sieve cups every 24 hrs through a small slit made on the sieve membrane. Attachment of ticks to the skin was monitored every 24 hrs. for up to 72 hrs. after introduction of the ticks.\n(§3) More than 60% of ticks used in our experiments were dead after contact with Lipodeet. Although a well-aerated sieve cup was used (1″ inner diameter), we initially thought that the tick mortality may be due to possible DEET vapor trapped within the sieve cup. Therefore, we designed experiments where one half of the surface area of skin within the sieve cup was treated with 40% Lipodeet and the other half was left untreated. Five adults ticks of A. americanum were then introduced into the sieve cups every 24 hrs. After 72 hrs., the sieve cups were removed."}, "[2]": {"test_system": "Amblyoma americanum", "assay": "Tick attachment to rabbit ear, Amblyoma americanum", "type": "in vivo", "procedure": "as §1, §2, §3"}}}
{"smiles": "CCN(CC)C(=O)c1cccc(C)c1", "note": "[DEET, N,N-diethyl-m-toluamide]", "values": [{"measurement": "initial time with no tick attachment", "setting": "[1]; 10% DEET on rabbit ear, normal rabbits 4.5 hours", "value": 7.0, "unit": "h"}, {"measurement": "time effective in preventing attachment of adult ticks", "setting": "[1]; 20%, adults", "value": "up to 24 hrs"}, {"measurement": "time effective in preventing attachment of nymphs", "setting": "[1]; 20%, nymphs", "value": "up to 48 hrs"}, {"measurement": "effect of raising concentration, adult ticks", "setting": "[1]; 40% versus 20%, adults", "value": "slightly more effective at 48 hrs"}, {"measurement": "effect of raising concentration, nymphs", "setting": "[1]; 40% versus 20%, nymphs", "value": "no added advantage against nymphs"}, {"measurement": "initial time with no tick attachment", "setting": "[2]; 10% DEET on rabbit ear, normal rabbits 20 hours", "value": 22.0, "unit": "h"}, {"measurement": "adult ticks attached", "setting": "[2]; 20%, adults, by 48 hrs (2/10)", "value": 20, "unit": "%"}, {"measurement": "adult ticks attached", "setting": "[2]; 20%, adults, by 72 hrs (6/15)", "value": 40, "unit": "%"}, {"measurement": "prevention of adult tick attachment", "setting": "[2]; 20%, adults, up to 24 hrs", "value": "prevented tick attachment"}, {"measurement": "reduction of attachment of A. americanum nymphs to rabbit ear", "setting": "[2]; 20%, from 24 to 72 hrs, untreated 40% attached", "value": 50, "unit": "%"}, {"measurement": "site of tick attachment, half of the skin in the sieve cup treated", "setting": "[2]; 40%, adult A. americanum, after 72 hrs", "value": "ticks were seen attached to both treated and untreated surfaces"}, {"measurement": "adult ticks attached", "setting": "[2]; 40%, adults, at 48 hrs (1/10)", "value": 10, "unit": "%"}, {"measurement": "adult ticks attached", "setting": "[2]; 40%, adults, by 72 hrs (3/15)", "value": 20, "unit": "%"}, {"measurement": "ticks attached to the skin", "setting": "[2]; 40%, nymphs, by 48 hrs", "value": 20, "unit": "%"}, {"measurement": "prevention of tick attachment", "setting": "[2]; 40%, nymphs, up to 24 hrs", "value": "completely prevented tick attachment to the skin"}]}
